For 105 molecules, melting point results are on record in a melting point compilation (Tetko et al.).

Usually melting point stands for the temperature, or range, at which the solid turns liquid. `CC12CCC(=O)CC1CCC1C2CCC2(C)C1CCC2(C)O` (stereo not given) showed a melting point of 192 °C. The figure for `C/C=C/C1Nn2c(nnc2-c2cccnc2)S1` (stereo not given) is 120 to 122 °C. Regarding `N[C@@H](CCl)C(=O)O`, the melting point lay within 156 to 157 °C. As for `COc1cc(Br)c(C=O)cc1OC`, the figure is 150 °C; as for `NC(=O)C(F)(F)C(F)(F)C(F)(F)F`, 103 to 105 °C; as for `O=C(O)c1cc(-c2ccc(Br)cc2)oc1C(F)(F)F`, 201 to 203 °C.

The molecule `CC(=O)NCCc1ccccc1NC(C)=O` yielded a melting point of 144 °C. `CCC(=O)Nc1ccccc1` gave a melting point of 106 °C. As for `N#CC1=C(N)n2nc(C(F)(F)F)nc2NC1c1c(Cl)cccc1Cl` (stereo not given), the figure is 323 °C. `Cc1cccc2c1CC(C(=O)O)NC2` (racemic) registered a melting point of 316 to 318 °C. As for `CCCCCCCCNC(C)C(O)c1ccc(SC(C)C)cc1` (stereo not given), the figure is 62.5 °C. The figure for `c1ccc(CNc2ccccn2)cc1` is 95 °C. The figure for `CCOC(C/N=C/c1ccc(/C=N/CC(OCC)OCC)c([N+](=O)[O-])c1)OCC` is 38 °C. `CNC(=O)c1ccccc1N` displayed a melting point of 75 to 76 °C. The figure for `COc1cc(C=C(O)C(F)(F)C(F)(F)F)nc(OC)n1` is 58 to 60 °C.

In the case of `O=C(c1ccc(Cl)cc1)c1noc(-c2ccc(Br)cc2)c1S(=O)(=O)c1ccccc1`, the melting point was determined as 125 °C.

As for `Cc1n[nH]c(C)c1Br`, the melting point was 121 °C. The figure for `OCc1cccc(-c2ccccc2)c1` is 55 °C.

`CCN(CC)CCn1cnc2c1c(=O)n(C)c(=O)n2C` yielded a melting point of 75 °C. Turning to `CCCCCCC(C)CCC` (stereo not given), the melting point is -77.5 °C. The figure for `Cc1cccc(C)c1NC(=O)C1CCCCN1C` (stereo not given) is 150 °C; for `Nc1c(C=NNc2ccccc2)ccc2c1C(=O)c1ccccc1C2=O` it is 209 to 211 °C. As for `N#Cc1c(-c2ccc(F)cc2)c(C#N)c(=O)n(N)c1N`, the figure is 304 °C; as for `C=C(C)C(=O)OCCCCCCCCCCCC`, -7 °C.

Take `CC(=O)c1nn(-c2ccc(F)cc2)c(=N)s1`: the melting point was 198 °C.

`O=c1c(C=Cc2nc3ccccc3[nH]2)coc2ccccc12` registered a melting point of 260 °C.

`c1ccc(N2CSc3nnc(-c4cccnc4)n3C2)nc1` returned a melting point of 278 to 280 °C. The figure for `COC(=O)[C@H](C)On1c(C)csc1=S` is 69.8 °C; for `CN(CCOc1ccc(CC2SC(=O)NC2=O)cc1)c1ccccn1` (stereo not given) it is 122 °C; for `O=Cc1cccc(CBr)c1` it is 49 to 51 °C.

Turning to `CC(C)(C)c1cc(C(C)(C)C)c2oc(C(=O)O)cc(=O)c2c1`, the melting point fell in the range of 229 to 236 °C. The figure for `CCCCOc1ccc(-c2nnc3sc(/C=C/c4ccccc4)nn23)cc1` is 79 to 81 °C; for `N[C@@H](c1ccccc1)c1c(O)ccc2ccccc12` it is 133 to 137 °C. For the molecule `CC1=CC(=O)CC(=O)O1`, the melting point worked out at 188 °C. As for `O=CCCl`, the figure is -16.3 °C. The figure for `N#C/C(=N/Nc1ccccc1Cl)c1nc(-c2ccccc2)cs1` is 160 °C. The figure for `CCOP(=S)(OCC)SCC(=O)NC(C)C` is 28.5 °C; for `CCCCCCCCCCCCCCCCCCCCCCCO` it is 74 to 76 °C; for `Cc1cc(C)n2nc(N)c(/N=N/c3ccncc3)c2n1` it is 228 °C. `O=[N+]([O-])c1cc(I)cc([N+](=O)[O-])c1` registered a melting point of 101 °C.

In turn, `CC12CCC(=O)C(Cl)=C1CCC1C2CCC2(C)C(O)CCC12` (stereo not given) showed a melting point of 189 °C.

In the case of `Nc1ccc(C(=O)NC(CCC(=O)O)C(=O)O)cc1` (stereo not given), the melting point is 173 °C. As for `C#CCOCc1cc(COCC#C)c(COCC#C)cc1COCC#C`, the figure is 66 °C. As for `Cc1ccc2oc3c(c2c1)-c1oc(C)cc1C(C)(c1ccccc1)CC3` (stereo not given), the figure is 119 °C. As for `Cc1ccc(C)c2c1C(=O)N(C)C2=O`, the figure is 170 °C; as for `c1ccc(/N=N/c2ccccc2NNc2ccccc2)cc1`, 99 °C. `N[C@@H](CCCCNC(=O)c1ccccc1)C(=O)O` displayed a melting point of 251 to 256 °C. As for `Cc1cc2nc3c(=O)[nH]c(=O)nc-3n(CC(O)C(O)C(O)CO)c2cc1C` (stereo not given), the figure is 290 °C; as for `OCC1OC(n2cnc3c(S)ncnc32)C(O)C1O` (stereo not given), 218 to 221 °C; as for `COC(=O)C1(C(=O)OC)Cc2ccc(C)cc2C(=O)O1`, 120 to 121 °C. The figure for `CCOc1cc2c(cc1OCC)C(=S)NCC2` is 150 to 152 °C; for `CC12CCCC1C1CC=C3CC(O)CCC3(C)C1CC2` (stereo not given) it is 136 °C. With `Cc1ccccc1P(c1ccccc1)c1ccccc1`, the melting point worked out at 72 °C. `O=C(O)C=Cc1cc([N+](=O)[O-])ccc1Cl` showed a melting point of 218 to 222 °C. The figure for `NNC(=O)c1ccc(O)c(N)c1` is 251 °C; for `Cc1ccc2ncccc2c1[N+](=O)[O-]` it is 118 to 120 °C. As for `c1ccc2cc3cc4cc5ccccc5cc4cc3cc2c1`, the figure is 300 °C; as for `CC12CCC(C1(C)C)C(CC(Br)=Cc1ccccc1)(C1(CC(Br)=Cc3ccccc3)C(=O)C3(C)CCC1C3(C)C)C2=O` (stereo not given), 118 °C. The figure for `Cc1cc(O)ccc1[N+](=O)[O-]` is 128 °C.

For `Nc1ccc(N=Nc2ccc([N+](=O)[O-])cc2)cc1`, the melting point stood at 215 °C. As for `Cc1nnc(SCc2ccccc2)n1N=Cc1ccc(N(C)C)cc1`, the figure is 47 to 49 °C.

The molecule `N#Cc1cc(I)c(O)c([N+](=O)[O-])c1` came in with a melting point of 138 °C. The figure for `COc1cc2c(cc1OC)C(c1cc(Cl)ccc1[N+](=O)[O-])=NCC2` is 169 to 170 °C; for `CCCCC1CCCC1` it is -108 °C; for `CN(C)c1ccc(C(C=C2C=Cc3ccccc3N2N=O)c2ccccc2)cc1` (stereo not given) it is 196 °C. As for `O=C(c1ccc2c(c1)C(=O)OC2=O)c1ccc2c(c1)C(=O)OC2=O`, the figure is 219 to 226 °C; as for `CC(C)(C)c1ccc(OC(=O)c2ccccc2O)cc1`, 62 °C.

The molecule `Brc1ccc2[nH]cnc2c1` yielded a melting point of 130 to 131 °C. Turning to `C#C[C@@]1(O)CC[C@@H]2[C@@H]3CC[C@@H]4CC(=O)CC[C@]4(C)[C@H]3CC[C@@]21C`, the melting point was 220 to 221 °C. As for `N#CC(C#N)=Cc1sccc1C=O`, the figure is 126 to 130 °C. The figure for `COc1ccc(/N=N/c2c(N)nn3c(-c4ccccc4)cc(=O)[nH]c23)cc1` is 278 °C; for `O=C(Oc1c(F)c(F)c(F)c(F)c1F)c1ccc(-c2cnco2)cc1` it is 141 to 143 °C. The figure for `C1COCCOCCOCCOCCN1` is 35 to 37 °C. The molecule `Cc1ccc(C=O)c(Br)c1` showed a melting point of 35 °C. As for `COc1ccc(C(=O)C2CC2)cc1`, the figure is 42 °C; as for `CCOC(=O)c1sc2sc(C(=O)OCC)c(C)c2c1C`, 187 °C. As for `COc1ccc(C2=CCC3(C)C(CCC4C5CCC(O)C5(C)CCC43)C2)cc1` (stereo not given), the figure is 163 to 169 °C. The figure for `Cc1sc(-c2ccncc2)nc1-c1ccccc1` is 84 °C. In turn, `CCCCCCCCCCCCCCN` returned a melting point of 83.1 °C. Consider `C1CCN(SSN2CCCCC2)CC1`, for which the melting point came to 64.2 °C. `Cc1c(O)cccc1C(=O)O` gave a melting point of 144 °C. The figure for `COC(=O)Cc1csc2ccc(Cl)cc12` is 55 to 56 °C; for `C[C@]12CCC(=O)C[C@@H]1CC[C@@H]1[C@@H]2CC[C@]2(C)C(=O)CC[C@@]12O` it is 225 to 227 °C.

For the molecule `Cc1onc(-c2c(Cl)cccc2Cl)c1CO`, the melting point lay within 107 to 109 °C.

`N#CC1CN(C(c2ccccc2)c2ccccc2)C1` displayed a melting point of 153 to 156 °C. As for `N#CCCn1cnc2c(N)ncnc21`, the figure is 255 °C.

With `CC(C)=C/C=C/C=N/Nc1ccc([N+](=O)[O-])cc1[N+](=O)[O-]`, the melting point is 205 to 206 °C. The figure for `CC(=O)OCC(OC(C)=O)C(OC(C)=O)C(OC(C)=O)C(OC(C)=O)C(N)=O` (stereo not given) is 187 to 188 °C; for `CSc1nc(NS(=O)(=O)c2ccc(C)cc2)c(C#N)c(-c2ccccc2)c1Br` it is 212 to 216 °C; for `CC(=O)c1ccc2c(c1)OCO2` it is 86 to 89 °C. The figure for `CC(C)(C)OC(=O)N1CCC2(CC1)NC(=O)c1cc(Br)ccc1O2` is 226 to 227 °C; for `O=C(O)C(F)(F)c1ccccc1` it is 75 °C; for `Cc1cc(O)c([N+](=O)[O-])cc1Cl` it is 133 °C. As for `C/C(=N\c1ccccc1C)c1c(O)c2ccccc2n(-c2ccccc2)c1=O`, the figure is 140 °C. In turn, `COC(=O)Oc1ccccc1C(=O)O` came in with a melting point of 134 °C.

`CSc1nc2nc(C)cc(C)n2n1`: the melting point fell in the range of 156 to 157 °C. The figure for `COc1ccc(CO)cc1OCc1ccccc1` is 85 °C; for `Nc1c(F)cc(F)cc1Br` it is 40 °C; for `O=C(Cl)c1cnn(-c2ccc([N+](=O)[O-])cc2)c1C(F)(F)F` it is 77 to 79 °C. The figure for `CC(=O)c1ccccc1OCc1ccccc1` is 38 to 40 °C; for `O=C(C1=NOC2C(=O)N(c3ccc(Cl)cc3)C(=O)C12)c1ccc2ccccc2c1` (stereo not given) it is 121 °C; for `Cc1ccc(/N=N/c2c(N)nn3c(C)cc(=O)[nH]c23)cc1` it is 285 °C. The figure for `CCCNC(=O)COC(=O)c1ccccc1` is 89.5 °C; for `CC1=NN(c2ccc(Cl)cc2Cl)C(=O)C1C(Cl)C1(Cl)C(=O)N(c2ccc(Cl)cc2Cl)N=C1C` (stereo not given) it is 110 to 120 °C. Molecule `Cc1ccc(COc2cccc(F)c2C#N)cc1` yielded a melting point of 81 to 83 °C.
